In patent US9012435B2, “Glucocorticoids attached to nitrate esters via an aromatic linker in position 21 and their use in ophthalmology” (Nicox S.A., priority 2008, dated 2015):

What was measured:
[1] = tested on: VEGF-induced leakage rat model; assay: VEGF-induced retinal vascular leakage rat model (Evans blue); type: in vivo; conditions: 25 μg/eye intravitreal, VEGF 100 ng/eye, 18 hours after injection
Protocol: Pupils were dilated with 1% topical cyclopentolate hydrochloride to see the needle to guide the intravitreal injection. Recombinant rat vascular endothelial growth factor (VEGF; 100 ng/eye) or VEGF at 100 ng/eye plus test compounds were prepared in 0.5% carboxymethyl cellulose (CMC) in sterile saline and was injected into the vitreous with a 30-gauge needle (Xu, Q., et al. Invest. Ophthalmol. Vis. Sci., 42:789-794, 2001). The compounds of the invention were compared to corresponding steroid cores at equimolar doses. […] Control animals received vehicle. Compound (18) was similarly dosed alongside triamcinolone acetonide for comparison.
Retinal vascular leakage was measured as described previously (Xu, Q., et al. Invest. Ophthalmol. Vis. Sci., 42:789-794, 2001). After about 18 hours post injection of test compounds, rats were anesthetized with ketamine (80 mg/kg) and xylazine (4 mg/kg) IP. Then 45 mg/kg Evans blue (EB) was injected into the jugular vein. The dye was allowed to circulate for 2 hours. The chest cavity was opened and rats then perfused with 1% formalin in 0.5 M citrate buffer (pH 3.5, 37° C.) through the left ventricle. Retinas were carefully dissected from enucleated eyes, placed in pre-weighed Eppendorf tubes, dried in speed vacuum overnight and dry weights recorded. Evans blue was extracted by incubating each retina in 120 μl formamide for 18 hours at 70° C., centrifuged for 2 hours at 6000 rpm. Absorbance of 60 μl of extract was measured at 620 nm and background absorbance was determined at 740 nm. Net absorbance was calculated by subtracting the background 740 nm from that at 620 nm. Measurement of a standard curve of Evans blue in formamide was also done and Evans blue leakage expressed as μl/g/h was calculated as shown below: [EB(ng/ml)×120 (μl)×1000]/[dry weight retina (mg)×circulation time (h)×plasma EB(ng/ml)×100]

ophthalmic artery = assay: Ocular haemodynamics (Color Doppler Imaging, Pourcelot Resistance Index) in ET-1 induced ischemia; type: in vivo, rabbit
Protocol: Haemodynamic evaluations were performed using an eco-color-doppler DynaView TM II SSD-1700 (Aloka Holding Europe AG, Milan, Italy). All animals underwent Color Doppler Imaging (CDI) investigation before ET-1 injection (T0), before the start of drug instillation (T2) and at the end of the drug treatment (T6). Special attention was devoted to the evaluation of ophthalmic and ciliary artery circulation. Blood flow velocities were measured for each vessel and the Pourcelot Resistance Index (RI) was calculated (Galassi F. et al., Acta Opht. Scand Suppl. (2000) 37-38).

Brown Norway rats = assay: Steroid-induced intraocular pressure (IOP) elevation in rats after intravitreal injection; conditions: for IOP increase: one week after injection, baseline 18 mm Hg
From the text: Male Brown Norway rats (250-275 g; Charles River laboratory) were acclimated for a week before IOP measurements. Baseline IOP measurements with Tonolab Tonometer (Tiolat Inc) were done in conscious rats (Pease, M. E., et al J. Glaucoma, 15:512-519, 2006) before intravitreal injection of test compounds. Then the rats were anesthetized with isoflurane inhalation and a drop of 0.5% tetracaine was topically applied on the eyes. Pupils were dilated with 1% topical cyclopentolate hydrochloride and 2.5% phenylephrine HCl to see the needle to aim the intravitreal injection of test compounds. […] For example, to compare to fluocinolone acetonide at both 25 and 50 μg/eye, compound (1) was dosed at 42.4 and 84.7 μg/eye, respectively. The des-nitro analog of compound (1) was dosed at 39.1 μg/eye (equivalent for 25 μg FC). Control animals received vehicle.
Five measurements were averaged for each time point. IOP measurements were taken at one and two weeks after intravitreal injection of test compounds.

TNFα = TNFα content in aqueous humor (ELISA), ET-1 induced ischemia; type: in vivo, rabbit; conditions: ET-1 treated rabbits; 0.5 mg (equivalent)/eye IVT
Protocol: (§1) Aqueous humor samples were withdrawn from both anterior and posterior chamber fluids of each eye before ET-1 administration (T0), before the administration of Compound (1) or fluorocinolone acetonide (T2), and at the end of treatments (T6). The same volume of saline were reintroduced every time. The aqueous humor samples were immediately frozen at −80° C. until use.
(§2) Tumor necrosis factor (TNFα) and interleukin 6 (IL-6) were determined in aqueous humor with a commercial kit using an ELISA method (Amersham Pharmacia Biotech). The minimum detectable concentrations were 0.10 pg/ml for IL-6 and TNFα. The interassay coefficient of variation was 0.7% for all assays.

retinal tissue = assay: Retina protection: morphological analysis, ET-1 induced ischemia; type: in vivo, rabbit; conditions: long term ET-1 treatment; 0.5 mg (equivalent)/eye IVT
Protocol: The eyes of each animal was enucleated, cornea and crystalline were removed and the eyes was paraformaldehyde-fixed. Then samples were dehydrated with increasing alcohol concentration (50°-75°-95°-100°). After 95° alcohol treatment, the eyes were divided into two parts following a longitudinal plain from cornea to insertion of optical nerve. Thus the samples were paraffin-embedded. Section 8 μm thick were stained with Haematoxylin-Eosin. Microscopical fields were registered by digitizing camera applied a light microscope with a 20× and 40× objective. On the digitized images was performed a morphological analysis of retinal tissue.

[2] = tested on: New Zealand White rabbits; assay: Electroretinogram (ERG) in ET-1 induced ischemia; conditions: after ET-1 treatment; 0.5 mg (equivalent)/eye IVT
Protocol: Twenty adult male New Zealand Albino rabbits weighing 2-2.5 Kg were used for the experiments. The animals were divided in two groups for the specific treatment chosen. The experimental procedures were conform to those of the Association for Research in Vision and Ophthalmology Resolution on the use of animals and in agreement with the Good Laboratory Practice for the use of animals and were conducted upon authorization of Italian regulation on protection of animals used for experimental and other scientific purpose (DM 116/1992) as well as with the European Union Regulations (OJ of ECL 358/1, Dec. 12, 1986). The rabbits were kept in individual cages, food and water was provided ad libitum. […]
The Electroretinogram (ERG) was performed in basal condition (T0), before the start of drug treatment (T2) and at the end of drug treatment (T6). […] The eyes were dilated by topical application of tropicamide (1%), adapted to darkness for at least 2 hours, and standard ERGs recorded in both eyes using corneal electrodes. […] The ERG signals were recorded using Retimax (CSO, Florence, Italy). The dark-adapted scotopic response (rod response) and scotopic flash response (photopic erg cone), were recorded. […] An average of three separate ERGs was determined for each eye. The amplitude (uV) of a- and b-waves were calculated for each step. […]

IL-6 = IL-6 content in aqueous humor (ELISA), ET-1 induced ischemia; type: in vivo, rabbit; conditions: ET-1 treated rabbits; 0.5 mg (equivalent)/eye IVT
Protocol: as §1, §2

[3] = tested on: isolated rabbit thoracic aorta preparations; assay: Assay on vascular tone (vasorelaxation of methoxamine-precontracted aortic rings); conditions: rabbit aortic rings precontracted with methoxamine 3 μM
Protocol: The ability of the compounds of the invention to induce vasorelaxation in comparison to precursor compounds was tested in vitro in isolated rabbit thoracic aorta preparations (Wanstall J. C. et al., Br. J. Pharmacol., 134:463-472, 2001). Male New Zealand rabbits (1,8-2 Kg) were used. The animals were anaesthetized with sodium thiopental (50 mg/kg, iv), sacrificed by exsanguinations and then the thorax was opened and the aorta dissected. The aortas were placed immediately in Krebs-HEPES buffer (pH 7.4; composition mM: NaCl 130.0, Kcl 3.7, […] 14.9, KH2PO4 1.2, MgSO4.7H2O 1.2, Glucose 11.0, HEPES 10.0, CaCl2.2H2O 1.6) and cut into ring segments (4-5 mm in length). Each ring was placed in a 5 ml tissue bath filled with Krebs-HEPES buffer (37° C.) aerated with 95% O2 and 5% CO2 and was then attached to a force transducer (Grass FT03), connected to a BIOPAC MP150 System for measurement of the isometric tension^2. The preparations were allowed to equilibrate for 1 h at a resting tension of 2 g with changes of the buffer every 15 minutes and then stimulated by exposure to 90 mM KCl (3 times) with intervening washings. After equilibration, the rings were precontracted submaximally with methoxamine (3 μM) and, when the contraction reach a steady state a cumulative concentration-response curve to the test compounds was obtained. The time intervals between doses were based on the time needed to reach a full a steady state response.
Responses to test compounds were expressed as a percentage of residual contraction and plotted against concentration of test compound. EC50 values (where EC50 is the concentration producing 50% of the maximum relaxation to the test compound) were interpolated from these plots.

VEGF = VEGF content in aqueous humor, ET-1 induced ischemia; type: in vivo, rabbit; conditions: ET-1 treated rabbits; 0.5 mg (equivalent)/eye IVT
[4] = tested on: New Zealand White rabbits; assay: Intraocular pressure in endothelin-1 (ET-1) induced ischemia
Protocol: Twenty adult male New Zealand Albino rabbits weighing 2-2.5 Kg were used for the experiments. The animals were divided in two groups for the specific treatment chosen. […] The rabbits were kept in individual cages, food and water was provided ad libitum. The animals were maintained on a 12-12 h light/dark cycle in a temperature controlled room (22°-23° C.).
Ischemia model of optic injury was obtained throughout by injection, twice a week, for 6 weeks, of endothelin-1 (ET-1) 250 nM, 500 μl of sterile saline, into the posterior vitreous body of both eyes, using a lachrymal cannula, under general anesthesia produced by tiletamine plus zolazepam (Zoletil 100, 0.05 mg/kg) plus xilazine (Xilor 2%, 0.05 ml/kg) i.m.
Fluocinolone acetonide (FC) (0.5 mg/eye in 100 μl of vehicle) or Compound (1) (0.5 mg equivalent/eye in 100 μl of vehicle) were instilled intravitreally (IVT) two weeks after the start of ET-1 treatment (T2), in one eyes, the same volume of vehicle was instilled in the other eye.
Intraocular pressure (TOP) was measured twice a using a Tono-Pen XL (Medtronic Solan. USA) as described by Maren's group (Exp. Eye Res. (1992) 55: 73-79; Exp. Eye Res. (1993) 57: 67-78) with a two-point standard pressure measurement.

CC1(C)O[C@@H]2C[C@H]3[C@@H]4C[C@H](F)C5=CC(=O)C=C[C@]5(C)[C@@]4(F)[C@@H](O)C[C@]3(C)[C@]2(C(=O)CO)O1 [FC, Fluocinolone acetonide]
inhibition of VEGF-induced leakage [1]: 86.1%
Resistence Index (ophthalmic artery; After 2 weeks (before drug instillation, T2)): 0.45 ± 0.06
Resistence Index (ophthalmic artery; After 6 weeks (end of drug treatment), 0.5 mg (equivalent)/eye IVT): 0.60 ± 0.04
Resistence Index (ophthalmic artery; Basal): 0.45 ± 0.06
IOP compared to compound (1) at 42.4 μg/eye (FIG. 4) (Brown Norway rats; 25 μg/eye intravitreal): increase in IOP
IOP increase (Brown Norway rats; 25 μg/eye intravitreal): 4 mm Hg
IOP increase (Brown Norway rats; 50 μg/eye intravitreal): 3 mm Hg
IOP increase after two weeks (Brown Norway rats; 25 and 50 μg/eye intravitreal, two weeks after injection): maintained
TNFα content in aqueous humor (TNFα): 20.76 ± 1.74 pg/mL
ET-1 induced morphological changes of retinal tissue (retinal tissue): not effective
Photopic erg cone (amplitude) [2]: 136.34 ± 11.98 μV
IL6 content in aqueous humor (IL-6): 16.82 ± 0.98 pg/mL
EC50 (concentration producing 50% of the maximum relaxation) [3]: no effect
VEGF content in aqueous humor (VEGF): 114.58 ± 5.61 pg/mL
IOP ([4]; ET-1, 0.5 mg (equivalent)/eye IVT given at T2): 13.00 ± 2.83 mmHG
IOP ([4]; I week, 0.5 mg (equivalent)/eye IVT, ET-1 ischemia): 15.50 ± 0.71 mmHG
IOP ([4]; II week, 0.5 mg (equivalent)/eye IVT, ET-1 ischemia): 19.00 ± 0.00 mmHG
IOP ([4]; III week, 0.5 mg (equivalent)/eye IVT, ET-1 ischemia): 19.00 ± 1.41 mmHG
IOP ([4]; IV week, 0.5 mg (equivalent)/eye IVT, ET-1 ischemia): 20.80 ± 0.71 mmHG
IOP ([4]; V week, 0.5 mg (equivalent)/eye IVT, ET-1 ischemia): 22.20 ± 0.00 mmHG
IOP ([4]; VI week, 0.5 mg (equivalent)/eye IVT, ET-1 ischemia): 21.10 ± 0.00 mmHG
IOP ([4]; basal, 0.5 mg (equivalent)/eye IVT given at T2): 13.50 ± 0.17 mmHG
